# Source: US6656925B2, “Composition and method of treating arthritis” (Advanced Medical Instruments, priority 1998, dated 2003)
# Columns and labels:
# [1] = absorbed by the gastrointestinal tract, significant first-pass metabolism in the liver; cited from earlier work
# [2] = test system: osteoarthritis symptoms; conditions: cited from earlier work
# [3] = test system: weakness of hind legs; assay: Case report: 12 year old Weimaraner with weakness of hind legs (Example 3); format: in vivo, dog (Weimaraner); conditions: prednisone 20 mg per day
# Procedure: A 12 year old Weimaraner developed weakness of his hind legs which limited his ability to jump and lift his leg to urinate. […] He was then started on the new composition, of the invention, comprising zinc acetate 20 mg and glucosamine sulfate 500 mg coated with polyvinylpirrolidone 7 mg taken twice a day. […] He was then maintained on glucosamine sulfate 500 mg and zinc acetate 10 mg, twice a day for 11 months until his death.
# [4] = most common adverse effect of zinc therapy; cited from earlier work
structure (smiles),measurement,setting,value
N[C@H]1C(O)O[C@H](CO)[C@@H](O)[C@@H]1O (some centres unmarked) [Glucosamine],bioavailibility,[1],26%
N[C@H]1C(O)O[C@H](CO)[C@@H](O)[C@@H]1O.O=S(=O)(O)O (some centres unmarked) [glucosamine sulfate],persistence of clinical improvement after discontinuation,[2]; after discontinuation,up to four weeks
same,onset of clinical improvement of symptoms,[2]; after oral administration,as early as one week
C[C@]12C=CC(=O)C=C1CC[C@@H]1[C@@H]2C(=O)C[C@@]2(C)[C@H]1CC[C@]2(O)C(=O)CO [prednisone],response of hind leg weakness,[3],limited success
[Zn] [zinc],"gastrointestinal irritation, share of patients",[4],approximately 10 % of patients
